Structures can show the parent of a compound that is named as a salt.
How the values were obtained:
human H3 receptor = target: T1, human H3 receptor (Homo sapiens, UniProt Q9Y5N1); assay: Human H3 radioligand binding ([3H]-N-alpha-methylhistamine, CHO cell membranes); conditions: Human H3 binding constant, class symbols; read-out: hH3 Ki
T1 construct: expressed in transfected cells
Procedure: (§1) Methods: CHO cells stably expressing the human H3 receptor (GenBank: NM_007232) were harvested and cell pellets were frozen (−80° C.). Cell pellets were resuspended in 5 mM Tris-HCl, pH 7.5 with 5 nM EDTA and a cocktail of protease inhibitors (Complete Protease Inhibitor Tablets, Roche Diagnostics). Cells were disrupted using a polytron cell homogenizer and the suspension was centrifuged at 1000×g for 10 minutes at 4° C. The pellet was discarded and the supernatant centrifuged at 40,000×g for 30 min at 4° C. This membrane pellet was washed in membrane buffer containing 50 mM Tris-HCl, pH 7.5 with 0.6 mM EDTA, 5 mM MgCl2 and protease inhibitors, recentrifuged as above and the final pellet resuspended in membrane buffer plus 250 mM sucrose and frozen at −80° C.
(§2) Radioligand Binding. Membranes were resuspended in 50 mM Tris HCl (pH 7.4), 5 mM MgCl2, 0.1% BSA. The membrane suspensions (10 μg protein per well) were incubated in a 96 well microtiter plate with [^3H]-N-alpha-methylhistamine (approximately 1 nM final concentration), test compounds at various concentrations (0.01 nM-30 μM) and scintillation proximity beads (Perkin Elmer, FlashBlueGPCR Scintillating Beads) in a final volume of 80 μl for 4 hours at room temperature, protected from light. Non-specific binding was determined in the presence of 10 μM clobenpropit. Radioligand bound to receptor, and therefore in proximity to the scintillation beads, was measured using a MicroBeta scintillation counter.

[1] = target: T2, rat histamine H3 receptor (Rattus norvegicus, UniProt Q9QYN8); assay: Rat H3 radioligand binding ([3H]-N-alpha-methylhistamine, CHO-A3 cell membranes); conditions: Rat H3 binding constant, class symbols; read-out: rH3 Ki
T2 construct: encoding the entire 445-amino-acid rat histamine H3 receptor; expressed in transfected cells
T2 sequence (Q9QYN8 whole entry): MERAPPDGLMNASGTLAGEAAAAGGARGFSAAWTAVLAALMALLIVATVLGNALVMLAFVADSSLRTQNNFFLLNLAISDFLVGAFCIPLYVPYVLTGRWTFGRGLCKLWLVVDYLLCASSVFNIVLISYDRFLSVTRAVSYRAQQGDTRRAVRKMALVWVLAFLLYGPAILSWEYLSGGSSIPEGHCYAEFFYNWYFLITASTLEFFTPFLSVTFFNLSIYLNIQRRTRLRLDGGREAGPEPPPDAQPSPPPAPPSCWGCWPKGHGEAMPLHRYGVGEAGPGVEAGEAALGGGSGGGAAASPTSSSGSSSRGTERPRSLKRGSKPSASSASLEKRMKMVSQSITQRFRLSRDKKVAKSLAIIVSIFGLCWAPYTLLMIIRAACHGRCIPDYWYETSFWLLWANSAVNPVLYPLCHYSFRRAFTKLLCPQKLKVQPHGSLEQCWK
Description: as §1, with “Cell line development and membrane preparation. The rat” for “Methods: CHO cells stably expressing the human”, “cDNA was PCR amplified from reverse-transcribed RNA pooled from rat thalamus, hypothalamus, striatum and prefrontal cortex with a sequence corresponding to by #338-1672 of Genbank file #NM_053506, encoding the entire 445-amino-acid rat histamine H3 receptor. This was engineered into the pIRES-neo3 mammalian expression vector, which was stably transfected into the CHO-A3 cell line (Euroscreen, Belgium), followed by clonal selection by limiting dilution. Cells” for “(GenBank: NM_007232)”
as §2

T1 sequence (Q9Y5N1 whole entry): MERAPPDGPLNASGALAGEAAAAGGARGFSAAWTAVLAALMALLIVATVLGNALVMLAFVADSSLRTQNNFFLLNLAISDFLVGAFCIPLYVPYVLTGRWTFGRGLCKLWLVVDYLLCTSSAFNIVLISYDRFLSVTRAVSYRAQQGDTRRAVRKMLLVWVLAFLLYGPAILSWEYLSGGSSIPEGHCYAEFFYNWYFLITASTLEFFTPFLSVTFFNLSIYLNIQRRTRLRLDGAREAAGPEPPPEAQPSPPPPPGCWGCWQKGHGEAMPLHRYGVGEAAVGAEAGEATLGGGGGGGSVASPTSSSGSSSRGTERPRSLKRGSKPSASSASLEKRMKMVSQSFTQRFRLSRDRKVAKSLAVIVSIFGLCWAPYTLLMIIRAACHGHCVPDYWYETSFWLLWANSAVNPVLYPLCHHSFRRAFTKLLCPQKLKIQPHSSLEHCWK

| SMILES | melting point | Ki (human H3 receptor) | Ki [1] |
| --- | --- | --- | --- |
| CC(C)N1CCN(C(=O)c2ccc(-c3ccc(=O)n(C)n3)cc2)CC1 [Example 47, 6-[4-(4-Isopropyl-piperazine-1-carbonyl)-phenyl]-2-methyl-2H-pyridazin-3-one] | 131 to 132 °C | 100 to 1000 nM | 100 to 1000 nM |
| Cn1nc(-c2ccc(C(=O)N3CCN(C4CCCC4)CC3)cc2)ccc1=O [Example 46, 6-[4-(4-Cyclopentyl-piperazine-1-carbonyl)-phenyl]-2-methyl-2H-pyridazin-3-one] | 177 to 179 °C | 100 to 1000 nM | 100 to 1000 nM |
| CC(C)N1CCc2ccc(-c3ccc(=O)n(C)n3)cc2CC1 (as salt: HCl) [Example 22, 6-(3-Isopropyl-2,3,4,5-tetrahydro-1H-benzo[d]azepin-7-yl)-2-methyl-2H-pyridazin-3-one. HCl] | 254 to 256 °C |  |  |
| O=c1ccc(-c2ccc3c(c2)CCN(C2CCC2)CC3)n[nH]1 [Example 2, 6-(3-Cyclobutyl-2,3,4,5-tetrahydro-1H-benzo[d]azepin-7-yl)-2H-pyridazin-3-one] | 250 to 251 °C | < 100 nM | < 100 nM |
| C[C@@H]1CCCN1CCc1ccc(-c2ccc(=O)[nH]n2)cc1 [Example 51, 6-{4-[2-((R)-2-Methyl-pyrrolidin-1-yl)-ethyl]-phenyl}-2H-pyridazin-3-one] | 159 to 161 °C | < 100 nM | < 100 nM |
| Cn1nc(-c2ccc(Oc3ccc4c(c3)CCN(C3CCC3)CC4)nc2)ccc1=O [Example 26, 6-[6-(3-Cyclobutyl-2,3,4,5-tetrahydro-1H-benzo[d]azepin-7-yloxy)-pyridin-3-yl]-2-methyl-2H-pyridazin-3-one] | 134 to 137 °C | < 100 nM | < 100 nM |
| CC(C)N1N=C(c2ccc3c(c2)CCN(C2CCC2)CC3)CCC1=O [Example 4, 6-(3-Cyclobutyl-2,3,4,5-tetrahydro-1H-benzo[d]azepin-7-yl)-2-isopropyl-4,5-dihydro-2H-pyridazin-3-one] | 140 to 141 °C | < 100 nM | 100 to 1000 nM |
| CC(C)N1CCc2ccc(C3=NN(C(C)C)C(=O)CC3)cc2CC1 [Example 6, 2-Isopropyl-6-(3-isopropyl-2,3,4,5-tetrahydro-1H-benzo[d]azepin-7-yl)-4,5-dihydro-2H-pyridazin-3-one] | 125 to 126 °C | 100 to 1000 nM | 100 to 1000 nM |
| O=C1NN=C(c2ccc3c(c2)CCN(C2CCC2)CC3)C2CC12 (stereo not drawn) (as salt: HCl) [Example 40, 5-(3-Cyclobutyl-2,3,4,5-tetrahydro-1H-benzo[d]azepin-7-yl)-3,4-diaza-bicyclo[4.1.0]hept-4-en-2-one] | 129 to 132 °C |  |  |
| Cn1nc(-c2ccc3c(c2)CCN(C2CCCC2)CC3)ccc1=O (as salt: HCl) [Example 23, 6-(3-Cyclopentyl-2,3,4,5-tetrahydro-1H-benzo[d]azepin-7-yl)-2-methyl-2H-pyridazin-3-one. HCl] | 239 to 240 °C |  |  |
| O=C1NN=C(c2ccc3c(c2)CCNCC3)C2CC12 (stereo not drawn) (as salt: HCl) [Example 39, 5-(2,3,4,5-Tetrahydro-1H-benzo[d]azepin-7-yl)-3,4-diaza-bicyclo[4.1.0]hept-4-en-2-one] | 148 to 151 °C |  |  |
| C[C@@H]1CCCN1CCc1ccc2cc(-c3ccc(=O)[nH]n3)ccc2c1 (as salt: HCl) [Example 70, 6-{6-[2-((R)-2-Methyl-pyrrolidin-1-yl)-ethyl]-naphthalen-2-yl}-2H-pyridazin-3-one] | 295 to 298 °C |  |  |
| Cn1ncc(Oc2ccc3c(c2)CCN(C2CCC2)CC3)cc1=O [Example 35, 5-(3-Cyclobutyl-2,3,4,5-tetrahydro-1H-benzo[d]azepin-7-yloxy)-2-methyl-2H-pyridazin-3-one] |  | < 100 nM | 100 to 1000 nM |
| O=C1NN=C(c2ccc3c(c2)CCN(C2CCC2)CC3)C2CC12 (stereo not drawn) [Example 40, 5-(3-Cyclobutyl-2,3,4,5-tetrahydro-1H-benzo[d]azepin-7-yl)-3,4-diaza-bicyclo[4.1.0]hept-4-en-2-one] |  | < 100 nM | 100 to 1000 nM |
| COCn1ncc(Oc2ccc3c(c2)CCN(C2CCC2)CC3)cc1=O [Example 37, 5-(3-Cyclobutyl-2,3,4,5-tetrahydro-1H-benzo[d]azepin-7-yloxy)-2-methoxymethyl-2H-pyridazin-3-one] |  | < 100 nM | 100 to 1000 nM |
| CC(C)N(C)CCc1ccc(-c2ccc(=O)n(C)n2)cc1 [Example 54] |  | 100 to 1000 nM | 100 to 1000 nM |
| CC(=O)N1CCN(CCc2ccc(-c3ccc(=O)n(C)n3)cc2)CC1 [Example 58] |  | 100 to 1000 nM | 100 to 1000 nM |
| O=C1NN=C(c2ccc3c(c2)CCNCC3)C2CC12 (stereo not drawn) [Example 39, 5-(2,3,4,5-Tetrahydro-1H-benzo[d]azepin-7-yl)-3,4-diaza-bicyclo[4.1.0]hept-4-en-2-one] |  | 100 to 1000 nM | 100 to 1000 nM |
| Cn1ncc(Oc2ccc3c(c2)CCN(C2CCC2)CC3)c(Br)c1=O [Example 31, 4-Bromo-5-(3-cyclobutyl-2,3,4,5-tetrahydro-1H-benzo[d]azepin-7-yloxy)-2-methyl-2H-pyridazin-3-one] |  | < 100 nM | < 100 nM |
| C[C@@H]1CCCN1CCc1ccc(-c2ccc(=O)n(-c3ccc(Cl)cc3)n2)cc1 [Example 52] |  | < 100 nM | < 100 nM |
| O=c1ccc(-c2ccc(CCN3CCCCC3)cc2)nn1-c1ccccc1 [Example 65] |  | 100 to 1000 nM | 100 to 1000 nM |
| Cn1nc(-c2ccc(C(=O)N3CCN4CCC[C@H]4C3)cc2)ccc1=O [Example 48, 6-[4-((S)-Hexahydro-pyrrolo[1,2-a]pyrazine-2-carbonyl)-phenyl]-2-methyl-2H-pyridazin-3-one] |  | 100 to 1000 nM | 100 to 1000 nM |
| CCN(CC)CCc1ccc(-c2ccc(=O)n(C)n2)cc1 [Example 56] |  | 100 to 1000 nM | 100 to 1000 nM |
| Cn1ncc(Oc2ccc3c(c2)CCN(C2CCC2)CC3)c(Cl)c1=O [Example 30, 4-Chloro-5-(3-cyclobutyl-2,3,4,5-tetrahydro-1H-benzo[d]azepin-7-yloxy)-2-methyl-2H-pyridazin-3-one] |  | < 100 nM | < 100 nM |
| COCn1ncc(Oc2ccc3c(c2)CCN(C2CCCC2)CC3)cc1=O [Example 38, 5-(3-Cyclopentyl-2,3,4,5-tetrahydro-1H-benzo[d]azepin-7-yloxy)-2-methoxymethyl-2H-pyridazin-3-one] |  | < 100 nM | 100 to 1000 nM |
| O=C(c1ccc(-c2ccc(=O)n(-c3ccc(F)cc3)n2)cc1)N1CCC[C@H]1CN1CCCC1 [Example 49, 2-(4-Fluoro-phenyl)-6-[4-((S)-2-pyrrolidin-1-ylmethyl-pyrrolidine-1-carbonyl)-phenyl]-2H-pyridazin-3-one] |  | < 100 nM | 100 to 1000 nM |
| Cn1ncc(Oc2ccc3c(c2)CCN(C2CCCC2)CC3)cc1=O [Example 36, 5-(3-Cyclopentyl-2,3,4,5-tetrahydro-1H-benzo[d]azepin-7-yloxy)-3-methyl-2H-pyridazin-3-one] |  | < 100 nM | 100 to 1000 nM |
| O=c1c(Cl)c(Oc2ccc3c(c2)CCN(C2CCC2)CC3)cnn1-c1ccccn1 [Example 33, 4-Chloro-5-(3-cyclobutyl-2,3,4,5-tetrahydro-1H-benzo[d]azepin-7-yloxy)-2-pyridin-2-yl-2H-pyridazin-3-one] |  | < 100 nM | < 100 nM |
| CCN(CCc1ccc(-c2ccc(=O)n(C)n2)cc1)C1CCC1 [Example 62] |  | 100 to 1000 nM | 100 to 1000 nM |

From patent US20110098269A1, “Substituted Pyridazinone Derivatives as Histamine-3 (H3) Receptor Ligands” (Cephalon, Inc., priority 2008, published 2011)
